Results on eight compounds are retold here after publication PMC9287224 (Clinical Pharmacokinetics, 2022).

Structures can show the parent of a compound that is named as a salt.

The conditions of series [1]: for reduction of the elimination rate: patients with Child C cirrhosis vs control subjects; for decrease of the elimination rate by liver cirrhosis: liver cirrhosis (Child class not stated) vs control subjects; for decrease in Cl/F: Child C cirrhosis compared with control subjects.
For series [2] the following is noted: monkeys; cited from earlier work.
The next series has as its target CYP2C9 (Homo sapiens, UniProt P11712). The conditions noted are these: patients with Child C cirrhosis vs control subjects.
A short description of series [3]: Galactose elimination capacity. The format is in vivo, human. The conditions noted are these: patients with Child C cirrhosis.

Sequence of CYP2C9 (P11712 whole entry): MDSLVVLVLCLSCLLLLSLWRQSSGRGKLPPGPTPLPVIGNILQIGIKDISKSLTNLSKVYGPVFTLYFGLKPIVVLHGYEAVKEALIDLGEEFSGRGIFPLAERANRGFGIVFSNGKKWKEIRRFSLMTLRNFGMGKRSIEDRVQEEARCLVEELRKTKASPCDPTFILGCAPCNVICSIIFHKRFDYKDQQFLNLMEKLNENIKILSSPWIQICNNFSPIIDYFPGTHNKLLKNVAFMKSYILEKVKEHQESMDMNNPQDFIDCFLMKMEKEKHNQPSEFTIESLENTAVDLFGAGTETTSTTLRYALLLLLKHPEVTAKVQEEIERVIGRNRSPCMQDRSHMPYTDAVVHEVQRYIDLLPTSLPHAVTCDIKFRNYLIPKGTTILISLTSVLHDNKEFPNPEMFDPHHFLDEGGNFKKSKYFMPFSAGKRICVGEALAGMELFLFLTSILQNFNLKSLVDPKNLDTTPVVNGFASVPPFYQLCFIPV

For the compound `CC(C(=O)O)c1ccc(-c2ccc(O)cc2)c(F)c1` (stereo not shown) [4-Hydroxyflurbiprofen, 4-hydroxyflurbiprofen], in series [1] (liver cirrhosis vs control subjects (Child class not stated)), the “increase in the AUC0–24h by liver cirrhosis” value is 58%. As to `Cn1c(=O)c2c(ncn2C)n(C)c1=O` [Caffeine, caffeine], the “reduction of the elimination rate” value in series [1] stood at 51%. Broadly, the bioavailability is dose-corrected exposure relative to a reference, in per cent. Consider `O=C1Nc2ccc(Cl)cc2[C@@](C#CC2CC2)(C(F)(F)F)O1` [Efavirenz, efavirenz], for which the bioavailability in series [2] was 42%. The “reduction of the elimination rate” value in series [1] came out at 30%.

Consider `CC(C(=O)O)c1ccc(-c2ccccc2)c(F)c1` (stereo not shown) [Flurbiprofen, flurbiprofen], for which the “change of metabolic ratio 4-hydroxyflurbiprofen/flurbiprofen” value at CYP2C9 is reported as “remained unchanged”. Regarding `O=C[C@H](O)[C@@H](O)[C@@H](O)[C@H](O)CO` [Galactose, galactose], the “galactose elimination capacity as % of controls (dropping to)” value in series [3] came to 18%.

As for `COCCc1ccc(OCC(O)CNC(C)C)cc1` (stereo not shown) [Metoprolol, metoprolol tartrate], the “decrease of the elimination rate by liver cirrhosis” value in series [1] is on record as 37%. Also, the “Cl/F as % of control subjects (dropped to)” value in series [1] (patients with Child C cirrhosis) is reported as 22%. Usually clearance stands for the rate of elimination divided by the concentration. A lower clearance goes with inefficient removal. `Cc1ncc2n1-c1ccc(Cl)cc1C(c1ccccc1F)=NC2` [Midazolam, midazolam]: the “decrease in Cl/F” value in series [1] is 84%. Also, in series [1] (assuming equal volume of distribution in cirrhosis and controls), the “ratio of the bioavailabilities Fcirrhosis Child C/Fcontrols” value was 1.73. This compound showed a clearance in series [1] (human, in vivo, clearance corrected for bioavailability, controls) of approximately 1330 mL/min. On to `COc1ccc2[nH]c([S+]([O-])Cc3ncc(C)c(OC)c3C)nc2c1` (stereo not shown) [Omeprazole, omeprazole], for which, in series [1], the “decrease in Cl/F” value amounted to 91% and the “decrease of the elimination rate by liver cirrhosis” value was determined as 75%.
